This passage reports TGI and GI50 results from PubChem BioAssay (NCI).

Values joined by “and” are separate entries in the source; they are usually repeats but may differ in a detail not shown here. Identical values can stand only once.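 Where inhibition never reached the appropriate level, the endpoint shown equals the highest concentration tested. Otherwise, values were interpolated linearly from a five-concentration, 48-hour dose response in 96-well plates. Here, GI50 denotes the concentration required for 50% inhibition of growth. TGI denotes the concentration required for complete inhibition of growth.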 A value given as a limit tells only on which side of the number the result lay.

Among the test systems are TK-10 renal; SN12C renal; SF-539 CNS; RPMI-8226 leukemia; IGROV1 ovarian; NCI-H23 lung; MDA-MB-231 breast; HOP-92 NSCLC; LOX IMVI melanoma; HT29 colon.
Common to all, as to assay: NCI-60 cell line screen, 48 h

Take `CCCCCCCCCCCCCCCCS(=O)(=O)c1ccc(NN)cc1`: the TGI in the test with TK-10 renal, in the test on SN12C renal, in the test with SF-539 CNS, in the test on RPMI-8226 leukemia, with IGROV1 ovarian and with NCI-H23 lung was more than 10000 nM throughout. The TGI with MDA-MB-231 breast, in the test on HOP-92 NSCLC, with LOX IMVI melanoma and in the test on HT29 colon was more than 10000 nM each time.

Consider `CC[C@H](C)[C@H](NC(=O)[C@H]1CCCCN1C)C(=O)N(C)[C@H](C[C@@H](OC(C)=O)c1nc(C(=O)N[C@@H](Cc2ccccc2)C[C@H](C)C(=O)OC)cs1)C(C)C`, for which the GI50 was 25.4 nM in the test with TK-10 renal; 0.76 nM and 2.5 nM in the test on SN12C renal; 0.482 nM and < 2.5 nM in the test with SF-539 CNS; 2 nM and 2.5 nM in the test with IGROV1 ovarian; 0.71 nM and 2.5 nM in the test on NCI-H23 lung; 1.02 nM and 2.5 nM in the test on MDA-MB-231 breast. Further, the GI50 in the test on HOP-92 NSCLC is 765 nM; in the test on LOX IMVI melanoma, 0.536 nM and 2.5 nM; with HT29 colon it was 0.251 nM and < 2.5 nM. For the same compound, the TGI in the test with SN12C renal was more than 25000 nM; with SF-539 CNS, 4.37 nM and < 2.5 nM; in the test with RPMI-8226 leukemia, 8970 nM; in the test with IGROV1 ovarian, more than 25000 nM; with NCI-H23 lung it was more than 25000 nM; in the test on MDA-MB-231 breast, more than 25000 nM. The TGI in the test on HOP-92 NSCLC is more than 25000 nM; in the test with LOX IMVI melanoma it was more than 25000 nM; with HT29 colon, 13.7 nM and < 2.5 nM.

For `COc1ccc(-c2cc(/C=C/C(=O)c3cc(OC)c(OC)c(OC)c3)[nH]n2)cc1OC`, the GI50 was 3270 nM in the test with TK-10 renal; 1770 nM in the test with SN12C renal; 309 nM in the test with SF-539 CNS; 298 nM with RPMI-8226 leukemia; 2720 nM with IGROV1 ovarian; 1970 nM in the test with NCI-H23 lung. Also, the GI50 in the test on MDA-MB-231 breast was 2020 nM; in the test with HOP-92 NSCLC, 1610 nM; in the test with LOX IMVI melanoma, 1460 nM; in the test on HT29 colon it was 1300 nM. Moreover, the TGI was 11800 nM in the test on TK-10 renal; 3830 nM with SN12C renal; 1480 nM in the test on SF-539 CNS; 1660 nM with RPMI-8226 leukemia; 8610 nM with IGROV1 ovarian; 4910 nM in the test with NCI-H23 lung. Also, the TGI was determined as 13500 nM with MDA-MB-231 breast, 5480 nM in the test with HOP-92 NSCLC, 2880 nM with LOX IMVI melanoma and 2730 nM in the test with HT29 colon.

On to `O=C(Nc1ccc(Cl)cc1)Nc1ccccc1CNc1nc(Nc2ccc(OCCN3CCCC3)cc2)ncc1Cl`, for which the GI50 was 982 nM with TK-10 renal; 913 nM in the test with SN12C renal; 863 nM with SF-539 CNS; 1240 nM with RPMI-8226 leukemia; 1620 nM in the test on IGROV1 ovarian; 2530 nM in the test with NCI-H23 lung. Besides, the GI50 with MDA-MB-231 breast is 888 nM; in the test on HOP-92 NSCLC it was 985 nM; with LOX IMVI melanoma, 901 nM; with HT29 colon, 1190 nM. The TGI in the test with TK-10 renal came out at 1910 nM; in the test with SN12C renal, 1740 nM; in the test with SF-539 CNS, 1610 nM; in the test on RPMI-8226 leukemia it was 3190 nM; with IGROV1 ovarian, 5720 nM; with NCI-H23 lung it was 10000 nM. Moreover, the TGI in the test with MDA-MB-231 breast came out at 1840 nM; in the test on HOP-92 NSCLC, 2770 nM; in the test on LOX IMVI melanoma, 1640 nM; with HT29 colon it was 3280 nM.

As for `COc1cc2nnn3c4ncccc4c(N=O)c3c2cc1OC`, the GI50 in the test on TK-10 renal is 7980 nM; with SN12C renal it was 2540 nM; with SF-539 CNS, 2750 nM; in the test with RPMI-8226 leukemia it was 173 nM; with IGROV1 ovarian it was 896 nM; with NCI-H23 lung it was 6400 nM. Further, the GI50 with MDA-MB-231 breast is 4090 nM; with HOP-92 NSCLC, 65.7 nM; in the test on LOX IMVI melanoma, 1160 nM; with HT29 colon, 1340 nM. Also, the TGI with TK-10 renal was more than 88600 nM; with SN12C renal it was more than 100000 nM; in the test on SF-539 CNS it was 9150 nM; in the test with RPMI-8226 leukemia, more than 100000 nM; with IGROV1 ovarian, more than 37000 nM; with NCI-H23 lung, 27900 nM. For the same compound, the TGI in the test on MDA-MB-231 breast is more than 53900 nM; with LOX IMVI melanoma, more than 100000 nM; in the test on HT29 colon it was more than 100000 nM.
